Assay [1] deals with EPHB1 kinase domain. The assay is described as follows: pTyr-Var library bacterial peptide display kinase screen (enrichment scores). In kind it is biochemical, human. Particulars: for Screen: sheet EPHB1, effect of the variant peptide relative to its reference peptide in the pTyr-Var library screen (enrichment scores); for Screen (variant relative to reference peptide, measured in the pTyr-Var library screen): sheet "EPHB1", variant seq vs reference seq, bacterial peptide display enrichment.

The test system of assay [2] is EPHB2 kinase domain. The assay is described as above. It counts as biochemical, human. Particulars: sheet EPHB2.
Assay [3] addresses T1, c-Src kinase domain (Homo sapiens, UniProt P12931). Described as above. It counts as biochemical. Particulars: sheet "Src".
Assay [4] deals with Fer kinase domain. Described as above. In kind it is biochemical, mouse. Particulars: sheet "Fer".
Assay [5] has as its target T2, c-Abl kinase domain (Mus musculus, UniProt P00520).
T2 sequence (P00520 242-493 limits assumed): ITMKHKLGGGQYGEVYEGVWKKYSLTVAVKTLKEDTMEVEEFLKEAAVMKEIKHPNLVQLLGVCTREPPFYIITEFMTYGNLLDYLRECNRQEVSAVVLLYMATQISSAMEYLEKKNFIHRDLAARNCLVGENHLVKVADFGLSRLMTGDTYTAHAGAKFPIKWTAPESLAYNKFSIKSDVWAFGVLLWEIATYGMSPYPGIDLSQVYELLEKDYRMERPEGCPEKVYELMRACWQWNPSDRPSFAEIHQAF
The description is as above. It counts as biochemical.

The target of assay [6] is T1, c-Src kinase domain. The assay is described as follows: RP-HPLC assay to measure peptide phosphorylation kinetics. In kind it is biochemical. Particulars: purified peptide substrate.
For assay [7], the target named is T1, c-Src kinase domain. The assay is described as follows: ADP-Quest continuous fluorimetric kinase assay (Michaelis-Menten parameters and initial rates). In kind it is biochemical. Particulars: ADP-Quest assay, c-Src kinase domain 10 nM, 100 μM ATP, 37 °C; three to five replicates; error = standard error of global Michaelis-Menten fit.
[8] abbreviates: effect of variant peptide relative to its reference peptide in the pTyr-Var library screen (enrichment scores).
[9] abbreviates: effect of the variant peptide relative to its reference peptide in the pTyr-Var library screen.
The mark [10] stands for this setting: value of the variant peptide against its reference peptide in the pTyr-Var library screen with Fer.
Where [11] appears, read: fig5-data2, sheet "Abl", Screen for the variant/reference peptide pair, pTyr-Var library.
[12] abbreviates: variant peptide versus its reference peptide in the pTyr-Var library screen.
Setting [13] is: sheet "Abl", effect of variant peptide relative to its reference peptide in pTyr-Var library screen (enrichment).
Setting [14] is: variant peptide relative to its reference peptide, pTyr-Var library screen enrichment.
Setting [15] is: effect of the variant relative to its reference peptide in the pTyr-Var library screen.

Turning to LVIIKYLPEWT [PSEN1_Y240_F237I], the Screen in assay [1] is reported as 1.338; in assay [2] (setting [8]) it was 1.457.
Take IEEGTYGVAFR [CDK11B_Y449_V452A_YF]: the Screen in assay [3] (setting [9]) is on record as -0.1184; in assay [4] (setting [10]), -0.4849; in assay [1], -1.792; in assay [2] (setting [8]), -1.778.
In the case of REVPVYTFSEP [FAM120B_Y368_D370Y_YF], the Screen came to 3.398 in assay [3] (setting [9]), 3.619 in assay [4] (setting [10]) and 0.7576 in assay [1].
With PMFHSYVSLPF [PLXNA2_Y293_K289M], the Screen in assay [5] (setting [11]) turned out to be 0.1709; in assay [1] it was 0.7871; in assay [2] (setting [8]), 0.8579.
LLIMEYAKFGS [RET_Y806_V804M_YF]: the figures for the Screen in assay [3] (setting [12]), in assay [1] and in assay [2] (setting [8]) were 0.7851, -1.009 and -0.7138, respectively.
In the case of QSSALYEDHFL [ASS1_Y83_R86H_YF], the Screen in assay [3] (setting [9]) came to 0.1278; in assay [4] (setting [10]), 0.8014; in assay [1], 0.2982; in assay [2] (setting [8]) it was 1.176.
As for KVASVYEALGF [NT5C_Y65_P68L], the Screen is 0.2966 in assay [3] (setting [12]), -0.5868 in assay [4] (setting [10]), 1.12 in assay [1] and -0.4355 in assay [2] (setting [8]).
As to Ac-SGDITYGQFAQ-NH2 [PLCG1_Y210], in assay [6], the “Phosphorylation Rate” value came to 2.121 s⁻¹.
With QLQQAYQEAFE [YWHAZ_Y149_S145L], the Screen turned out to be 2.922 in assay [5] (setting [13]), 1.389 in assay [4] (setting [14]) and 1.539 in assay [2] (setting [15]).
“Ac-GCDECIYGMFPFRRRG-NH2 [Src Consensus (P-5C, D+1 G), Src Consensus-related peptide with +1 Gly]”: in assay [7], the Michaelis constant (Km) was 97 ± 10 µM and the kcat came to 4.4±0.2 s^–1.
CGPLLYGLVHQ [PRKCG_Y122_S119P]: the Screen is reported as -0.4426 in assay [3] (setting [12]), -0.6662 in assay [4] (setting [10]), 0.3123 in assay [1] and -0.1456 in assay [2] (setting [8]).
Take SSPQLYLVPFL [TAF4_Y652_P651L]: the “Screen (variant relative to reference peptide, measured in the pTyr-Var library screen)” value in assay [1] turned out to be 3.351. This substance also had a Screen in assay [2] (setting [8]) of 2.197.
For PFRKLYESVKK [MKI67_Y241_W238R], the Screen in assay [3] (setting [9]) is reported as -1.776; in assay [4] (setting [10]) it was -1.869; in assay [1], -3.688; in assay [2] (setting [8]), -2.876.
In the case of KLPFLYDDPFS [GPX2_Y127_P126L_YF], the Screen is recorded as 1.127 in assay [4] (setting [10]), 2.862 in assay [1] and 2.625 in assay [2] (setting [8]).
With LENSTYQFIHV [CRB1_Y760_R764H_YF], the Screen in assay [3] (setting [9]) is reported as 0.1019; in assay [5] (setting [11]) it was -1.13; in assay [4] (setting [10]), 0.6151; in assay [1] it was 0.7891; in assay [2] (setting [8]), 0.62.
For the substance FQNSLYAPDFS [FAM92A_Y226_R222Q_YF], the Screen in assay [3] (setting [9]) is reported as 0.8192; in assay [4] (setting [10]), 1.873; in assay [1] it was 0.991; in assay [2] (setting [8]) it was 1.651.
For the substance LFEDCYLLGTS [ASS1_Y87_R86C_YF], the results for the Screen in assay [3] (setting [9]), in assay [1] and in assay [2] (setting [8]) were 2.612, -1.767 and -0.8272, respectively.
Turning to HNLDFYKMTTN [FGFR3_Y648_K650M_YF], the Screen is -2.668 in assay [3] (setting [9]), -0.9943 in assay [4] (setting [10]), -1.054 in assay [1] and 0.0281 in assay [2] (setting [8]).
In assay [2] (setting [8]), TDIVAYSGWVQ [SPTBN2_Y477_R480W] had a Screen of -2.35.
In the case of HSKGIYFVQLE [MGAT4B_Y262_Q257H_YF], the Screen in assay [3] (setting [9]) was 0.1036; in assay [5] (setting [11]), -0.4742; in assay [2] (setting [8]) it was -0.5096.
For RGDCTYAPLLG [AR_Y269_M268T], the Screen in assay [3] (setting [9]) is listed as 0.1809; in assay [4] (setting [10]) it was -1.638; in assay [1], 0.2378; in assay [2] (setting [8]), 0.1305.
As for MVIPNYSSWTE [UROC1_Y185_R188W], the Screen stood at 2.023 in assay [4] (setting [14]) and 4.793 in assay [2] (setting [15]). In assay [1], the “Screen (variant relative to reference peptide, measured in the pTyr-Var library screen)” value is on record as 4.533.
Regarding KLVQLYDVCTK [BTK_Y461_G462D], the Screen in assay [3] (setting [9]) amounted to 0.2967; in assay [4] (setting [10]), 2.534; in assay [1] it was 3.126; in assay [2] (setting [8]) it was 2.907.
As for RQNQEYEILMD [KRT39_Y379_L383M], the figures for the Screen in assay [1] and in assay [2] (setting [8]) were 0.4118 and 0.3975, respectively.
Turning to RPPELYALMSD [ZAP70_Y569_C564R], the figures for the Screen in assay [3] (setting [12]), in assay [5] (setting [13]) and in assay [2] (setting [15]) were 1.184, 3.577 and 1.779, respectively. In addition, the “Screen (variant relative to reference peptide, measured in the pTyr-Var library screen)” value in assay [1] stood at 2.108.
Regarding Ac-IGEGTYRTVFK-NH2 [CDK5-Y15-G16R], in assay [6], the “Phosphorylation Rate” value came out at 0.219 s⁻¹.
As for LNCDRYSAGLL [PDE6A_Y275_V277A], the Screen in assay [2] (setting [8]) is given as -1.197.
For the substance PLDNLYAEPAV [PRPS1_Y146_V142L], the Screen in assay [3] (setting [12]) stood at 0.376; in assay [4] (setting [10]) it was 0.1056; in assay [1], 0.8585; in assay [2] (setting [8]), 0.4426.
Regarding DAKTIYDFTDT [PDK1_Y136_A134T], the Screen in assay [3] (setting [12]) is on record as -0.8148; in assay [4] (setting [10]), -1.776; in assay [2] (setting [8]) it was -1.665.
As to FSPCDYQPCLA [TNS1_Y798_Y796C_YF], in assay [1], the “Screen (variant relative to reference peptide, measured in the pTyr-Var library screen)” value worked out at 3.912. This substance displayed a Screen in assay [2] (setting [15]) of 3.039.
Take AEARMYGVLPW [PLP1_Y207_D203E]: the Screen in assay [3] (setting [12]) was -0.462; in assay [2] (setting [8]) it was -1.308.
In the case of LNEAVYTKMMT [G6PD_Y401_P396L], the Screen is reported as 0.3249 in assay [3] (setting [9]), 1.268 in assay [4] (setting [10]), 1.441 in assay [1] and 2.035 in assay [2] (setting [8]).
As to VGTKWYMAPEV [ACVRL1_Y375_R374W], the results for the Screen in assay [1] and in assay [2] (setting [8]) were 2.34 and 2.182, respectively.
Turning to ITNLLYHLVGW [GBA_Y412_V414L], the Screen in assay [3] (setting [9]) is listed as -0.6312; in assay [4] (setting [10]), 0.1481; in assay [1], -1.095; in assay [2] (setting [8]), -1.708.
On to ACCLLYCGDVV [TUBA4A_Y319_R320C], for which the Screen in assay [3] (setting [12]) is -0.4326; in assay [5] (setting [13]), -0.5266; in assay [4] (setting [14]), 2.253; in assay [2] (setting [15]), 3.709. Besides, the “Screen (variant relative to reference peptide, measured in the pTyr-Var library screen)” value in assay [1] was 4.284.
Turning to LAIELYVVVCK [RHO_Y136_R135L], the values for the Screen in assay [1] and in assay [2] (setting [8]) were 1.06 and 0.6623, respectively.
For GQRDLYSGLNE [CD3E_Y199_Q204E], the Screen in assay [3] (setting [9]) is recorded as -0.3824; in assay [4] (setting [10]) it was -1.295; in assay [1], -0.9821; in assay [2] (setting [8]) it was -0.7383.
As for NTFENYWPFFQ [GATM_Y103_K102N_YF], the Screen in assay [3] (setting [9]) was 2.256; in assay [1], 4.344; in assay [2] (setting [8]) it was 3.46.
Turning to FTNELYMMMRD [FGFR1_Y730_C725Y_YF], the Screen came to 0.7713 in assay [1] and 0.5582 in assay [2] (setting [8]).
SPFMLYQFLKQ [RPAP3_Y567_D564Y_YF]: the Screen in assay [3] (setting [12]) was -1.029; in assay [4] (setting [14]), -1.212; in assay [1], 2.24; in assay [2] (setting [8]) it was 1.841.
In the case of RGKLFYQEVPA [METTL11B_Y76_A72G], the results for the Screen in assay [4] (setting [10]), in assay [1] and in assay [2] (setting [8]) were -1.394, -1.027 and -1.191, respectively.
Regarding LDTFIYDAAVL [GRIN2A_Y730_A727T], the Screen is recorded as 0.2901 in assay [3] (setting [9]), -0.1876 in assay [4] (setting [10]), -0.673 in assay [1] and -0.5027 in assay [2] (setting [8]).
PFGQWYESHFA [RPS8_Y113_R110G_YF]: the Screen in assay [3] (setting [12]) is 2.137; in assay [4] (setting [14]), 2.253; in assay [1], 2.825; in assay [2] (setting [8]) it was 2.604.
QKTGDYFDLFG [PTPN11_Y62_N58K_YF]: the Screen is on record as -1.277 in assay [3] (setting [12]), -1.083 in assay [1] and -1.66 in assay [2] (setting [8]).
Consider LFEDRYLLGPS [ASS1_Y87_T91P_YF], for which the Screen is -1.226 in assay [1] and -0.4556 in assay [2] (setting [8]).
Turning to AQQPIYIRVEG [NLRP7_Y318_V319I], the Screen in assay [3] (setting [12]) is -2.214; in assay [1], -2.185; in assay [2] (setting [8]), -2.079.

In general, Km refers to the substrate concentration at which the rate is half of its maximum.

These data come from publication PMC10065799, “High-throughput profiling of sequence recognition by tyrosine kinases and SH2 domains using bacterial peptide display” (eLife, 2023).
